The test system of series [1] is IL-15 induced STAT5 phosphorylation in Human Whole Blood (total lymphocytes). The series can be described thus: HWB IL-15 Induced STAT5 Phosphorylation Assay. It counts as cell-based. The conditions noted are these: IL-15 stimulated, read-out: HWB-IL15-pSTAT5 IC50.
The nature of series [2]: Stability of JAK3 covalent inhibitors in human whole blood. Format: in vitro ADME. The conditions noted are these: 37° C.; for Human blood stability t1/2: 1 μM; for half-life at 1 μM: both sexes, read-out: Human blood stability t1/2.
Procedure: Human blood was collected from one male and one female healthy subjects at the Occupational Health & Wellness Center at Pfizer, Groton, Conn. and pooled for each study. Both rat and human blood was collected freshly into K2-EDTA tubes and kept on ice. An aliquot of the blood was transferred to microtubes and pre-warmed for 10 min at 37° C. using a heat block. […] An aliquot of the incubation mixture was removed at designated time points during the course of the incubation, mixed with an aliquot of acetonitrile containing an internal standard, vortexed and centrifuged. The resulting supernatants were removed and subjected to LC-MS/MS analyses to determine parent compound concentrations. Peak area ratios of the parent compound vs the internal standard were used to determine the % of parent compound remaining vs incubation time.
Series [3] deals with IL-15 induced P-STAT5 in human PBMC (total lymphocytes). Briefly: PBMC IL-15 Induced P-STAT5. Format: cell-based. As to conditions: IL-15 stimulated, read-out: PBMC IL15-pSTAT5 IC50. Summed up: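 Thawed human PBMC in RPMI, preincubated 30 min at 37 °C, then IL-15 stimulated. Cells methanol-permeabilized (90%, on ice 20 min) and stained for phospho-STAT5. Read by flow cytometry, gated on total lymphocytes.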

Experimental findings from patent US11111242B2, “Pyrrolo[2,3-d]pyrimidinyl, pyrrolo[2,3-b]pyrazinyl and pyrrolo[2,3-d]pyridinyl acrylamides” (Pfizer Inc., priority 2013, dated 2021) are described below.

The structures appear in SMILES notation. pIC50: −log10 of the molar value. Read-outs that look alike come from different tables or passages of the source.

The pIC50 is the negative decadic logarithm of the IC50, by convention in mol/L.

`C=CC(=O)N1CCC(Oc2cnc3[nH]cc(-c4cnn(C)c4)c3n2)CC1` [Example 218, 1-(4-{[7-(1-methyl-1H-pyrazol-4-yl)-5H-pyrrolo[2,3-b]pyrazin-2-yl]oxy}piperidin-1-yl)prop-2-en-1-one]: the pIC50 in series [1] is 5.21; in series [3], 6.46. Moreover, the “Human blood stability t1/2” value in series [2] is over 6 h.
Regarding `C=CC(=O)N1CC[C@@H](Nc2cnc3[nH]cc(C(=O)NC(C)(C)C)c3n2)C[C@H]1C` (single isomer, unassigned) [Example 342], in series [2], the half-life at 1 μM is over 6 h.
Still for that read-out and setting: the same measure for `C=CC(=O)N1CCC[C@@H](Nc2ncnc3[nH]cc(-c4ccc(C(=O)NC5CC5)c(Cl)c4)c23)C1` [Example 31, 4-(4-{[(3R)-1-acryloylpiperidin-3-yl]amino}-7H-pyrrolo[2,3-d]pyrimidin-5-yl)-2-chloro-N-cyclopropylbenzamide]: over 6 h; for `C=CC(=O)N1CC[C@H](Nc2cnc3[nH]cc(C(=O)NC(C)(C)C)c3n2)C[C@@H]1C` (racemic) [Example 340]: over 6 h.
Take `C=CC(=O)N1CCC(Nc2cnc3[nH]cc(C(=O)N[C@H](C)CC)c3n2)CC1` [Example 289, 2-[(1-acryloylpiperidin-4-yl)amino]-N-[(2R)-butan-2-yl]-5H-pyrrolo[2,3-b]pyrazine-7-carboxamide]: the values for the pIC50 in series [1] (Lymphocyte) and in series [3] were 6.97 and 7.43, respectively.
Regarding `C=CC(=O)N1CCC[C@@H](Nc2ncnc3[nH]cc(C#N)c23)C1` [Example 45, 4-{[(3R)-1-acryloylpiperidin-3-yl]amino}-7H-pyrrolo[2,3-d]pyrimidine-5-carbonitrile], the pIC50 in series [1] (Lymphocyte) is 6.00; in series [3] it was 6.46.
The like results for `C=CC(=O)N1CCC(Nc2cnc3[nH]cc(C(=O)NCC(F)(F)F)c3n2)CC1` [Example 273, 2-[(1-acryloylpiperidin-4-yl)amino]-N-(2,2,2-trifluoroethyl)-5H-pyrrolo[2,3-b]pyrazine-7-carboxamide] were, in that order, 6.67 and 7.25.
Regarding `C=CC(=O)N1CC[C@H](Nc2cnc3[nH]cc(C(=O)NC(C)(C)C)c3n2)C[C@@H]1C` [Example 341, 2-(((2S,4S)-1-Acryloyl-2-methylpiperidin-4-yl)amino)-N-(tert-butyl)-5H-pyrrolo[2,3-b]pyrazine-7-carboxamide], the “Human blood stability t1/2” value in series [2] is over 6 h.
As for `C=CC(=O)N1C[C@H](Nc2ncnc3[nH]ccc23)CCC1(C)C` (single isomer, unassigned) [Example 61], the pIC50 in series [1] (Lymphocyte) is 5.73; in series [3] (Homo sapiens, PBMC), 5.99.
The like results for `C=CC(=O)N1CCC(Nc2cnc3[nH]cc(C(=O)NC(C)C)c3n2)CC1` [Example 168, 2-[(1-acryloylpiperidin-4-yl)amino]-N-(propan-2-yl)-5H-pyrrolo[2,3-b]pyrazine-7-carboxamide] were, in that order, 6.87 and 7.43.
Take `C=CC(=O)N1CCC(Nc2cnc3[nH]cc(C(=O)NC4CCCCC4(F)F)c3n2)CC1` (centres unmarked) [Example 256, 2-[(1-acryloylpiperidin-4-yl)amino]-N-(2,2-difluorocyclohexyl)-5H-pyrrolo[2,3-b]pyrazine-7-carboxamide]: the pIC50 was 6.26 in series [1] (Lymphocyte) and 7.31 in series [3].
Regarding `C=CC(=O)N1CCC(Oc2cnc3[nH]cc(C(=O)NC(C)C)c3n2)CC1` [Example 339, 2-((1-Acryloylpiperidin-4-yl)oxy)-N-isopropyl-5H-pyrrolo[2,3-b]pyrazine-7-carboxamide], the pIC50 in series [1] (Lymphocyte) was 6.30; in series [3], 7.09.
As to `C=CC(=O)N1CCC(Nc2cnc3[nH]cc(C(=O)N[C@H]4CC[C@@H](F)C4)c3n2)CC1` [Example 244, 2-[(1-acryloylpiperidin-4-yl)amino]-N-[(1S,3R)-3-fluorocyclopentyl]-5H-pyrrolo[2,3-b]pyrazine-7-carboxamide], the pIC50 in series [1] (Lymphocyte) is 6.39; in series [3] (Homo sapiens, PBMC) it was 6.90.
`C=CC(=O)N1CCC(Nc2cnc3[nH]cc(C(=O)NCC(C)(F)F)c3n2)CC1` [Example 282, 2-[(1-acryloylpiperidin-4-yl)amino]-N-(2,2-difluoropropyl)-5H-pyrrolo[2,3-b]pyrazine-7-carboxamide]: the pIC50 is 6.36 in series [1] (Lymphocyte) and 7.14 in series [3].
Take `C=CC(=O)N1CC[C@H](C)[C@@H](Nc2ncnc3[nH]ccc23)C1` (racemic) [Example 50, 1-[(3R,4S)-4-methyl-3-(7H-pyrrolo[2,3-d]pyrimidin-4-ylamino)piperidin-1-yl]prop-2-en-1-one]: the pIC50 is 6.03 in series [1] (Lymphocyte) and 6.69 in series [3] (Homo sapiens, PBMC).
On the same counts, the results for `C=CC(=O)N1CC[C@H](F)[C@@H](Nc2ncnc3[nH]ccc23)C1` [Example 4, 1-((3S,4S)-3-((7H-pyrrolo[2,3-d]pyrimidin-4-yl)amino)-4-fluoropiperidin-1-yl)prop-2-en-1-one] are 6.94 and 7.71.
Turning to `C=CC(=O)N1CCN(c2cnc3[nH]cc(C(=O)NC(C)C)c3n2)CC1(C)C` [Example 293, 2-(4-acryloyl-3,3-dimethylpiperazin-1-yl)-N-(propan-2-yl)-5H-pyrrolo[2,3-b]pyrazine-7-carboxamide], the negative logarithm of the IC50 (pIC50) is 5.35 in series [1] (Lymphocyte) and 6.52 in series [3] (Homo sapiens, PBMC).
Turning to `C=CC(=O)N1CCC(Nc2cnc3[nH]cc(C(=O)N[C@H](C)CCC)c3n2)CC1` [Example 274, 2-[(1-acryloylpiperidin-4-yl)amino]-N-[(2R)-pentan-2-yl]-5H-pyrrolo[2,3-b]pyrazine-7-carboxamide], the pIC50 in series [1] (Lymphocyte) was 6.32; in series [3], 7.24.
The like results for `C=CC(=O)N1CCC(Nc2cnc3[nH]cc(-c4ccnc(F)c4)c3n2)CC1` [Example 211, 1-(4-{[7-(2-fluoropyridin-4-yl)-5H-pyrrolo[2,3-b]pyrazin-2-yl]amino}piperidin-1-yl)prop-2-en-1-one] were, in that order, 5.36 and 6.69.
The like results for `C=CC(=O)N1C[C@H](Nc2ncnc3[nH]ccc23)CC[C@@H]1C` (racemic) [Example 129, rac-1-[(2S,5R)-2-Methyl-5-(7H-pyrrolo[2,3-d]pyrimidin-4-ylamino)piperidin-1-yl]prop-2-en-1-one] were, in that order, 6.10 and 6.94.
On the same counts, the results for `C=CC(=O)N1CC[C@@H](Nc2cnc3[nH]cc(C(=O)NC(C)C)c3n2)[C@@H](F)C1` [Example 320, 2-{[(3S,4R)-1-acryloyl-3-fluoropiperidin-4-yl]amino}-N-(propan-2-yl)-5H-pyrrolo[2,3-b]pyrazine-7-carboxamide] are 6.46 and 7.21.
For the compound `C=CC(=O)N1CCC(Nc2cnc3[nH]cc(-c4cncc(F)c4)c3n2)CC1` [Example 212, 1-(4-{[7-(5-fluoropyridin-3-yl)-5H-pyrrolo[2,3-b]pyrazin-2-yl]amino}piperidin-1-yl)prop-2-en-1-one], the pIC50 was 5.68 in series [1] (Lymphocyte) and 6.81 in series [3].
For the compound `C=CC(=O)N1C[C@H](O)C[C@@H](Nc2ncnc3[nH]ccc23)C1` [Example 60, 1-((3R,5R)-3-((7H-Pyrrolo[2,3-d]pyrimidin-4-yl)amino)-5-hydroxypiperidin-1-yl)prop-2-en-1-one], the pIC50 in series [1] (Lymphocyte) is 5.56; in series [3] (Homo sapiens, PBMC), 5.61.
Consider `C=CC(=O)N1CCC(Nc2cnc3[nH]cc(C(=O)N[C@H]4CC[C@H](F)C4)c3n2)CC1` [Example 247, 2-[(1-acryloylpiperidin-4-yl)amino]-N-[(1S,3S)-3-fluorocyclopentyl]-5H-pyrrolo[2,3-b]pyrazine-7-carboxamide], for which the pIC50 in series [1] (Lymphocyte) was 6.19; in series [3] (Homo sapiens, PBMC), 6.85.
`C=CC(=O)N1C[C@H](Nc2ncnc3[nH]ccc23)C[C@H](N(C)C)C1` [Example 57, 1-((3R,5S)-3-((7H-Pyrrolo[2,3-d]pyrimidin-4-yl)amino)-5-(dimethylamino)piperidin-1-yl)prop-2-en-1-one]: the figures for the pIC50 in series [1] (Lymphocyte) and in series [3] were 5.58 and 5.91, respectively.
`C=CC(=O)N1CCC[C@@H](Nc2ncnc3[nH]ccc23)C1` [Example 12, (R)-1-(3-((7H-Pyrrolo[2,3-d]pyrimidin-4-yl)amino)piperidin-1-yl)prop-2-en-1-one]: the pIC50 in series [1] (Lymphocyte) was 6.41; in series [3] (Homo sapiens, PBMC), 6.97.
With `C=CC(=O)N1CCC(Nc2cnc3[nH]cc(C(=O)NCC(C)(C)C)c3n2)CC1` [Example 271, 2-[(1-acryloylpiperidin-4-yl)amino]-N-(2,2-dimethylpropyl)-5H-pyrrolo[2,3-b]pyrazine-7-carboxamide], the negative logarithm of the IC50 (pIC50) was 6.10 in series [1] (Lymphocyte) and 6.87 in series [3] (Homo sapiens, PBMC).
The like results for `C=CC(=O)N1CCC(Nc2cnc3[nH]cc(C(=O)NC4CCCC4)c3n2)CC1` [Example 283, 2-[(1-acryloylpiperidin-4-yl)amino]-N-cyclopentyl-5H-pyrrolo[2,3-b]pyrazine-7-carboxamide] were, in that order, 6.15 and 7.23.
As to `C=CC(=O)N1CCC(Nc2cnc3[nH]cc(C(=O)NCCC#N)c3n2)CC1` [Example 261, 2-[(1-acryloylpiperidin-4-yl)amino]-N-(2-cyanoethyl)-5H-pyrrolo[2,3-b]pyrazine-7-carboxamide], the pIC50 in series [1] (Lymphocyte) and in series [3] was 6.67 throughout.
As for `C=CC(=O)N1CCC(Nc2cnc3[nH]cc(-c4cnc(OC)nc4)c3n2)CC1` [Example 210, 1-(4-{[7-(2-methoxypyrimidin-5-yl)-5H-pyrrolo[2,3-b]pyrazin-2-yl]amino}piperidin-1-yl)prop-2-en-1-one], the pIC50 in series [1] (Lymphocyte) was 5.57; in series [3] (Homo sapiens, PBMC), 6.33.
Regarding `C=CC(=O)N1CCC(Nc2cnc3[nH]cc(C(=O)NC[C@H](C)CC(F)(F)F)c3n2)CC1` [Example 241, 2-[(1-acryloylpiperidin-4-yl)amino]-N-[(2R)-4,4,4-trifluoro-2-methylbutyl]-5H-pyrrolo[2,3-b]pyrazine-7-carboxamide], the pIC50 is 6.18 in series [1] (Lymphocyte) and 7.06 in series [3] (Homo sapiens, PBMC).
